Test results published in patent US7781428B2 (Pfizer Inc., priority 2006, dated 2010).
Where a name gives a salt, the structure may show the parent alone.

Biological target: T1, mineralocorticoid receptor (MR) (Homo sapiens, UniProt P08235)
T1 construct: expressed in transfected cells; host or cells: Huh7 (human liver cells)
T1 sequence (P08235 726-964 limits assumed): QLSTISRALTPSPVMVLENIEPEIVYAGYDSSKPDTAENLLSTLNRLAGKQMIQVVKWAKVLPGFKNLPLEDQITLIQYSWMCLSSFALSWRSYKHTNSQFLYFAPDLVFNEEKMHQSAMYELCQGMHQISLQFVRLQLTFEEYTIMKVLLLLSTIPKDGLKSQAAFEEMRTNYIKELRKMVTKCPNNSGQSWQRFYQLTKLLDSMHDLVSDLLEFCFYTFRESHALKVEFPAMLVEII
Assay: Cell-based Gal4 response element-controlled luciferase reporter assay (MR antagonism)
Conditions: Huh7 human liver cells transfected with Gal4 DBD-MR LBD fusion and luciferase reporter; block of agonist-induced activation; overnight incubation
Text: Method 1: Cell-based Gal4 Response Element-controlled Luciferase Reporter Assay
An in vitro assay can be used to evaluate mineralocorticoid receptor (MR) antagonism by a test compound. […] An agonist of the receptor can bind to and activate the receptor LBD, which activate the expression of the Gal4 response element containing luciferase reporter gene. Antagonists can compete for binding to the receptor LBDs and decrease the transcription activity of the reporter gene. Measurement of luciferase activity allows quantitative determinations of the reporter transcription in the presence of either agonists or agonists and antagonists in combination. β-galactosidase activity, which is unaffected by ligand, is used to normalize the transfection efficiency in the cell population.
Huh7 cells were plated in RPMI1640+10% fetal bovine serum (Invitrogen Corporation, San Diego, Calif.), at 10,000 cells per well in 96-well tissue culture dishes for approximately 24 hours. Cells were then transfected using FuGENE™ 6 Transfection Reagent according to manufacturers' instructions (Roche Molecular Biochemicals, Indianapolis, Ind.). Approximately 20 hours after transfection, media were removed. Cells were washed once with PBS and treated (n=6/group) with agonist for each receptor (all chemicals from Sigma, St. Louis, Mo.), and with compounds. Agonist concentrations represent 70-80% of full activation of each receptor.
Compounds were dissolved in DMSO at 10 mM and diluted to final concentrations in phenol red-free media that contained 10% charcoal- and dextran-stripped serum (Life Technologies, Gathersburg, Md.). Following overnight incubation (18-20 hours) with compounds, the medium was removed and replaced with 100 μL per well of PBS and 100 μL of Steady-Glo™ lysis buffer with luciferase substrate (Promega Corporation, Madison, Wis.). After a 30-minute incubation to completely lyse the cells, 100 μL of the lysate was transferred to a black, Dynatech Microfluor assay plates (Dynex Corporation, Chantilly, Va.) to measure luciferase activity. The plate was sealed with TopSeal self-adhesive film, dark-adapted for 5 minutes, then counted in a TopCount Plate Reader (Packard Instrument Company, Meriden, Conn.) in single photon counting mode. The remaining lysate was used for determination of β-galactosidase activity. In a clear 96-well assay plate, 100 μL of cell lysate was added to 100 μL β-galactosidase assay buffer per well. The assay buffer consisted of 60 mM Na2HPO4, 40 mM NaH2PO4, 10 mM KCl, 1 mM MgSO4, 50 mM β-mercaptoethanol, and 2.5 mg/mL ONPG, the latter two reagents were added just prior to assay (all chemicals from Sigma). The reaction was allowed to proceed until a distinct yellow color developed. Reactions were stopped by the addition of 100 μL per well 1 M Na2CO3 and plates were read at 420 nm in Victor-2 (Perkin Elmer Life Sciences, Boston, Mass.). Values (relative luciferase activity) for each sample were expressed as a ratio of luciferase activity to OD420β-galactosidase activity measured in arbitrary units for each well. […] “b” is the slope, “c” is the IC50 or EC50. “x” is the concentration of the compound and “y” the activity at that concentration.

| IC50 | SMILES |
| --- | --- |
| 0.72 µM | N#Cc1ccc(N2N=C3c4ccc(C(=O)O)cc4CCC3C2C2CCOC2)cc1Cl (racemic) [Example 34, 2-(3-chloro-4-cyanophenyl)-3-((R)-tetrahydrofuran-3-yl)-3,3a,4,5-tetrahydro-2H-benzo[g]indazole-7-carboxylic acid and 2-(3-chloro-4-cyanophenyl)-3-((S)-tetrahydrofuran-3-yl)-3,3a,4,5-tetrahydro-2H-benzo[g]indazole-7-carboxylic acid] |
| 3.51 µM | N#Cc1ccc(N2N=C3c4ccc(C(=O)O)cc4OC[C@H]3[C@H]2c2ccc(F)cc2)cc1Cl [Example 57, (3S,3aS)-2-(3-chloro-4-cyanophenyl)-3-(4-fluorophenyl)-2,3,3a,4-tetrahydrochromeno[4,3-c]pyrazole-7-carboxylic acid] |
| 0.13 µM | N#Cc1ccc(N2N=C3c4ccc(C(=O)O)cc4OCC3C2C2CCCC2)cc1C(F)(F)F (racemic) [Example 69, (±)-(3RS,3aRS)-2-[4-cyano-3-(trifluoromethyl)phenyl]-3-cyclopentyl-2,3,3a,4-tetrahydrochromeno[4,3-c]pyrazole-7-carboxylic acid] |
| 0.057 µM | N#Cc1ccc(N2N=C3c4ccc(C(=O)NCCN5CCCC5)cc4CC[C@@H]3[C@@H]2c2ccc(F)cc2)cc1Cl (racemic) [Example 111, (±)-(3RS,3aRS)-2-(3-chloro-4-cyanophenyl)-3-(4-fluorophenyl)-N-(2-(pyrrolidin-1-yl)ethyl)-3,3a,4,5-tetrahydro-2H-benzo[g] indazole-7-carboxamide] |
| 0.705 µM | N#Cc1ccc(N2N=C3c4ccc(O)cc4CCC3C2c2ccc(F)cc2)cc1 (racemic) [Example 89, (±)-4-((3RS,3aRS)-3-(4-fluorophenyl)-7-hydroxy-3,3a,4,5-tetrahydrobenzo[g]indazol-2-yl)benzonitrile] |
| 0.038 µM | N#Cc1ccc(N2N=C3c4ccc(C(=O)O)cc4OC[C@@H]3[C@@H]2C2CCCC2)cc1Cl [Example 65, (3S,3aR)-2-(3-chloro-4-cyanophenyl)-3-cyclopentyl-2,3,3a,4-tetrahydrochromeno[4,3-c]pyrazole-7-carboxylic acid] |
| > 1 µM | Cc1cc(N2N=C3c4ccc(O)cc4CC[C@H]3[C@H]2c2ccc(F)cc2)ccc1C#N [Example 82, 4-((3S,3aS)-3-(4-fluorophenyl)-7-hydroxy-3,3a,4,5-tetrahydrobenzo[g]indazol-2-yl)-2-methylbenzonitrile] |
| > 1 µM | CN(C)Cc1cc(N2N=C3c4ccc(C(=O)O)cc4CCC3C2C2CCCC2)ccc1C#N (racemic) [Example 29, 2-(4-cyano-3-((dimethylamino)methyl)phenyl)-3-cyclopentyl-3,3a,4,5-tetrahydro-2H-benzo[g]indazole-7-carboxylic acid trifluoroacetate] |
| 1.55 µM | N#Cc1ccc(N2N=C3c4cc(C(=O)NCCN5CCCC5)ccc4CC[C@@H]3[C@@H]2c2ccc(F)cc2)cc1Cl (racemic) [Example 112, (±)-(3RS13aRS)-2-(3-chloro-4-cyanophenyl)-3-(4-fluorophenyl)-N-(2-(pyrrolidin-1-yl)ethyl)-3,3a,4,5-tetrahydro-2H-benzo[g]indazole-8-carboxamide] |
| 0.013 µM | Cc1cc(N2N=C3c4ccc(C(=O)O)cc4OC[C@@H]3[C@@H]2C2=CCCC2)ccc1C#N (racemic) [Example 77, (±)-(3RS,3aRS)-2-(4-cyano-3-methylphenyl)-3-cyclopentenyl-2,3,3a,4-tetrahydrochromeno[4,3-c]pyrazole-7-carboxylic acid] |
| 0.122 µM | N#Cc1ccc(N2N=C3c4ccc(C(=O)NCCCCC(=O)O)cc4CC[C@@H]3[C@@H]2c2ccc(F)cc2)cc1Cl (racemic) [Example 104, (±)-5-((3RS,3aRS)-2-(3-chloro-4-cyanophenyl)-3-(4-fluorophenyl)-3,3a,4,5-tetrahydro-2H-benzo[g]indazole-7-carboxamido)pentanoic acid] |
| 0.021 µM | N#Cc1ccc(N2N=C3c4ccc(C(=O)O)cc4CCC3C2c2ccco2)cc1Cl (racemic) [Example 43, 2-(3-chloro-4-cyanophenyl)-3-(2-furyl)-3,3a,4,5-tetrahydro-2H-benzo[g] indazole-7-carboxylic acid] |
| 0.0172 µM | Cc1cc(N2N=C3c4ccc(C(=O)O)cc4CC[C@@H]3[C@@H]2c2ccc(F)cc2)ccc1C#N [Example 7, (3R,3aR)-2-(4-cyano-3-methylphenyl)-3-(4-fluorophenyl)-3,3a,4,5-tetrahydro-2H-benzo[g]indazole-7-carboxylic acid] |
| > 1 µM | N#Cc1ccc(N2N=C3c4ccc(C(=O)O)cc4CC[C@H]3[C@H]2c2ccoc2)cc1Cl [Example 48, (3S,3aS)-2-(3-chloro-4-cyanophenyl)-3-(3-furyl)-3,3a,4,5-tetrahydro-2H-benzo[g]indazole-7-carboxylic acid] |
| 0.929 µM | N#Cc1ccc(N2N=C3c4ccc(C(=O)O)cc4CCC3C2c2ccc(F)cc2)cn1 (racemic) [Example 14, 2-(6-cyanopyridin-3-yl)-3-(4-fluorophenyl)-3,3a,4,5-tetrahydro-2H-benzo[g]indazole-7-carboxylic acid trifluoroacetate] |
| > 1 µM | Cc1cc(N2N=C3c4ccc(C(=O)O)cc4OC[C@H]3[C@H]2C2CCCC2)ccc1C#N (single isomer, unassigned) [Example 63] |
| 0.016 µM | N#Cc1ccc(N2N=C3c4ccc(C(=O)O)cc4CC[C@@H]3[C@@H]2c2ccco2)cc1Cl [Example 44, (3R,3aR)-2-(3-chloro-4-cyanophenyl)-3-(2-furyl)-3,3a,4,5-tetrahydro-2H-benzo[g]indazole-7-carboxylic acid] |
| > 0.5 µM | Cc1cc(N2N=C3c4ccc(C(=O)O)cc4CC[C@H]3[C@H]2C2CCCC2)ccc1C#N (single isomer, unassigned) [Example 23] |
| 0.015 µM | N#Cc1ccc(N2N=C3c4ccc(C(=O)O)cc4CCC3C2C2=CCCC2)cc1Cl (racemic) [Example 42, 2-(3-chloro-4-cyanophenyl)-3-cyclopentenyl-3,3a,4,5-tetrahydro-2H-benzo[g]indazole-7-carboxylic acid] |
| 0.013 µM | COc1cc(N2N=C3c4ccc(C(=O)O)cc4CC[C@@H]3[C@@H]2C2CCCC2)ccc1C#N [Example 26, (3S,3aR)-2-(4-cyano-3-methoxyphenyl)-3-cyclopentyl-3,3a,4,5-tetrahydro-2H-benzo[g]indazole-7-carboxylic acid] |
| 0.035 µM | N#Cc1ccc(N2N=C3c4ccc(C(=O)NCCC(N)=O)cc4CC[C@@H]3[C@@H]2c2ccc(F)cc2)cc1Cl (racemic) [Example 102, (±)-(3RS,3aRS)—N-(3-amino-3-oxopropyl)-2-(3-chloro-4-cyanophenyl)-3-(4-fluorophenyl)-3,3a,4,5-tetrahydro-2H-benzo[g]indazole-7-carboxamide] |
| 0.012 µM | CS(=O)(=O)CCNC(=O)c1ccc2c(c1)CCC1C2=NN(c2ccc(C#N)c(Cl)c2)C1c1ccc(F)cc1 (racemic) [Example 96, 2-(3-chloro-4-cyanophenyl)-3-(4-fluorophenyl)-N-(2-(methylsulfonyl)ethyl)-3,3a,4,5-tetrahydro-2H-benzo[g]indazole-7-carboxamide] |
| 0.086 µM | N#Cc1ccc(N2N=C3c4ccc(O)cc4CCC3C2c2ccc(F)cc2)cc1Cl (racemic) [Example 86, 2-chloro-4-(-3-(4-fluorophenyl)-7-hydroxy-3,3a,4,5-tetrahydrobenzo[g]indazol-2-yl)benzonitrile] |

| SMILES | IC50 |
| --- | --- |
| N#Cc1ccc(N2N=C3c4ccc(C(=O)O)cc4CCC3C2c2ccc(F)cc2)cc1Cl (racemic) [Example 2, 2-(3-chloro-4-cyanophenyl)-3-(4-fluorophenyl)-3,3a,4,5-tetrahydro-2H-benzo[g]indazole-7-carboxylic acid] | 0.223 µM |
